Measured values reported in patent US4587256A, “Novel thiazolidine derivatives” (Hoffmann-La Roche Inc., priority 1983, dated 1986).

Assays:
[1] = system: galactosaemic rats; test: dulcitol concentration in the eye lens of galactosaemic rats (30% galactose diet); assay type: in vivo; conditions: compared to untreated galactosaemic animals
Experimental: (§1) Furthermore, the compound of formula I in which R^1 is fluorine and R^2 is hydrogen was investigated for its activity on galactosaemic rats (30% galactose diet). More particularly, the dulcitol concentration in the eye lens was determined after 5 applications of 5 and of 20 mg/kg body weight per os over 2 days. Similarly, 20 mg/kg were administered intraperitoneally in an additional experiment. […] The same compound was also administered to streptozotocin-treated, diabetic rats (3 times 20 mg/kg p.o., 4, 8 and 24 hours after streptozotocin administration). Three (3) hours after the administration of the last dosage, the sorbitol concentration was determined in the eye lens and in the sciatic nerve.

[2] = system: streptozotocin-treated, diabetic rats; test: sorbitol concentration in eye lens and sciatic nerve of streptozotocin-treated, diabetic rats; assay type: in vivo; conditions: 3 times 20 mg/kg p.o. (4, 8 and 24 hours after streptozotocin), 3 hours after last dosage
Experimental: as §1

[3] = biological target: T1, aldose reductase from calves lenses (Bos taurus, UniProt P16116); test: inhibiting activity of aldose reductase from calves lenses; assay type: biochemical; conditions: read-out: IC50 values (concentrations which bring about 50% enzyme inhibition)
T1 construct: aldose reductase from calves lenses; from tissue; host or cells: calf lens

Row | IC50 [3] [nM] | SMILES | dulcitol concentration in the eye lens ([1]; 20 mg/kg administered intraperitoneally) | dulcitol concentration in the eye lens ([1]; 5 applications of 5 mg/kg body weight per os over 2 days) | dulcitol concentration in the eye lens ([1]; 5 applications of 20 mg/kg body weight per os over 2 days) | sorbitol concentration in the eye lens [2] | sorbitol concentration in the sciatic nerve [2]
1 | 100 | O=C1NC(=O)C2(CCOc3ccc(F)cc32)S1 (racemic) [(±)-6-fluoro-2,3-dihydrospiro[4H-1-benzopyran-4,5'-thiazolidine]-2',4'-dione] | significant decrease | significant decrease | significant decrease | clear decrease | clear decrease
2 | 8 | CC(=O)Nc1cc(F)cc2c1OCCC21SC(=O)NC1=O (racemic) [(±)-6-fluoro-8-acetamido-2,3-dihydrospiro[4H-1-benzopyran-4,5'-thiazolidine]-2',4'-dione] |  |  |  |  | 
3 | 89 | O=C1NC(=O)C2(CCOc3c([N+](=O)[O-])cc(F)cc32)S1 (racemic) [(±)-6-fluoro-8-nitro-2,3-dihydrospiro[4H-1-benzopyran-4,5'-thiazolidine]-2',4'-dione] |  |  |  |  | 
